This experiment concerns the target T1, Histamin-H2-Rezeptoren (Cavia porcellus, UniProt P47747).
T1 construct: in vitro am isolierten rechten Vorhof des Meerschweinchens; from tissue; host or cells: isolated right atrium of the guinea pig
Put plainly: Determination of pA2 values in vitro on the isolated right atrium of the guinea pig (H2-antagonistic activity). The experiment is classed as cell-based, Meerschweinchen. The following applies: read-out: pA2-Werte (converted).

T1 sequence (P47747 whole entry): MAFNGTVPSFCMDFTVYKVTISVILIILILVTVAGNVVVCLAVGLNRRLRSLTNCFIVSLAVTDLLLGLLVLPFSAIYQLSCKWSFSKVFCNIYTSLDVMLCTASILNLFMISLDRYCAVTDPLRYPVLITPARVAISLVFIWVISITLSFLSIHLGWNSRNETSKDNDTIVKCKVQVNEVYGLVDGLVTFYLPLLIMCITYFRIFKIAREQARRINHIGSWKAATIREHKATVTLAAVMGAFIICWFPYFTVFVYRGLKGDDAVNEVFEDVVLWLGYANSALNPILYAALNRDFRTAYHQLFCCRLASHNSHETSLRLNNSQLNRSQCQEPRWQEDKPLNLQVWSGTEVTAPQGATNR
Excerpt: Eine anerkannte Methode zur Bestimmung H2-antagonistischer Wirksamkeit ist die Ermittlung der pA2-Werte in vitro am isolierten rechten Vorhof des Meerschweinchens.

In the case of `Cc1ccc(SNc2nc(NCCCOc3cccc(CN4CCCCC4)c3)n(C)n2)cc1` [Beispiel 1, 1-Methyl-5-[3-[3-(1-piperidinylmethyl)phenoxy]propylamino]-3-(4-methyl-benzolsulfenamido)-1H-1,2,4-triazol], the Kb was 1.58 nM.

As to `CNC(=C[N+](=O)[O-])NCCSCc1ccc(CN(C)C)o1` [Ranitidin], the Kb is 155 nM.
